Structures can show the parent of a compound that is named as a salt. Where two headings read alike, the source gives them in different places.
How the values were obtained:
[1] = system: NCI-H292 lung cancer cells; assay: FDA drug screening, complete media vs cholesterol-free media without statin (TABLE 1); assay type: cell-based, human
[2] = system: NCI-H292 lung cancer cells; assay: FDA drug screening, complete media vs cholesterol-free media with simvastatin (TABLE 2); assay type: cell-based, human
[3] = Complete minus Cholesterol-free, >0 enhanced anti-cancer activity, about 0 neutral, <0 antagonist
[4] = NCI-H292 cells, cholesterol-free media without statin
[5] = NCI-H292 cells, FDA drug library screen, cholesterol-free media with simvastatin 0.04 μM
[6] = NCI-H292 cells, FDA drug library screen, complete media
[7] = complete media vs cholesterol-free media + simvastatin (0.04 μM), >0 enhanced anti-cancer activity, about 0 neutral, <0 antagonist
[8] = NCI-H292 cells, cholesterol-free media without statin, FDA drug library screen
[9] = NCI-H292 cells, complete media, FDA drug library screen
[10] = complete vs cholesterol-free media, >0 enhanced anti-cancer activity, about 0 neutral, <0 antagonist
[11] = NCI-H292 cells, cholesterol-free media with simvastatin 0.04 μM, cell growth value in FDA drug screen
[12] = NCI-H292 cells, complete media, cell growth value in FDA drug screen
[13] = complete media minus cholesterol-free media + simvastatin, >0 enhanced anti-cancer activity, about 0 neutral, <0 antagonist
[14] = Complete minus Cholesterol-free, greater than 0 enhanced anti-cancer activity, about 0 neutral, below 0 antagonist
[15] = NCI-H292 cells, FDA drug library screen, cholesterol-free media without statin
[16] = NCI-H292 cells, FDA library drug in cholesterol-free media with simvastatin 0.04 μM
[17] = NCI-H292 cells, FDA library drug in complete media
[18] = complete vs cholesterol-free media, greater than 0 enhanced anti-cancer activity, about 0 neutral, below 0 antagonists
[19] = NCI-H292 cells, cholesterol-free media with simvastatin 0.04 μM, FDA drug library screen (TABLE 2)
[20] = NCI-H292 cells, complete media, FDA drug library screen (TABLE 2)
[21] = complete media minus cholesterol-free media + simvastatin (0.04 μM), >0 enhanced anti-cancer activity, about 0 neutral, <0 antagonist
[22] = Complete minus Cholesterol-free, greater than 0 enhanced anti-cancer activity, about 0 neutral, below 0 antagonists
[23] = NCI-H292 cells in cholesterol-free media without statin
[24] = NCI-H292 cells in complete media

SMILES | Difference [1, 3] | Cholesterol-free [1, 4] | Complete ([1]; NCI-H292 cells, complete media) | Cholesterol-free media + simvastatin (0.04 μM) [2, 5] | Complete Media [2, 6] | Difference [2, 7] | Cholesterol-free media + simvastatin (0.04 μM) [2, 16] | Complete Media [2, 17] | also measured
CO/N=C(\C(=O)N[C@@H]1C(=O)N2C(C(=O)[O-])=C(COC(N)=O)CS[C@H]12)c1ccco1.[Na+] [Cefuroxime (sodium)] | −0.19 | 1.146 | 0.9534 | 1.129 | 1.035 | −0.09 |  |  | 
C=C(CC)C(=O)c1ccc(OCC(=O)O)c(Cl)c1Cl [Ethacrynic acid] |  |  |  |  |  |  |  |  | Cholesterol-free [1, 8]: 0.8126; Complete [1, 9]: 0.956; Difference [1, 10]: 0.14; Cholesterol-free media + simvastatin (0.04 μM) [2, 11]: 1.155; Complete Media [2, 12]: 1.268; Difference [2, 13]: 0.11
O=c1cc[nH]c(=O)[nH]1 [Uracil] |  |  |  |  |  | −0.31 | 1.203 | 0.8949 | Difference [1, 14]: −0.17; Cholesterol-free [1, 15]: 1.032; Complete [1, 6]: 0.8653
Cc1nc2n(c(=O)c1CCN1CCC(c3noc4cc(F)ccc34)CC1)CCCC2 [Risperidone] |  |  |  |  |  |  |  |  | Cholesterol-free [1]: 1.099; Complete [1]: 0.9616; Difference [1]: −0.14; Cholesterol-free media + simvastatin (0.04 μM) [2]: 0.9957; Difference [2]: 0.16
OC[C@@H](O)[C@@H](O[C@H]1O[C@H](CO)[C@@H](O)[C@H](O)[C@H]1O)[C@H](O)[C@@H](O)CO [Maltitol] |  | 1.093 | 0.7088 |  |  | −0.33 | 1.264 | 0.9377 | Difference [1, 18]: −0.38
Clc1ccc(C(OCCN2CCCCC2)c2ccccc2)cc1 (stereo not shown) [Cloperastine (hydrochloride)] | −0.28 | 1.087 | 0.8022 | 1.648 | 1.547 | −0.10 |  |  | 
CC1(C)S[C@@H]2[C@H](NC(=O)[C@H](C(=O)[O-])c3ccsc3)C(=O)N2[C@H]1C(=O)[O-].[Na+].[Na+] [Ticarcillin (disodium)] |  |  |  | 1.294 | 1.207 | −0.09 |  |  | Cholesterol-free [1, 8]: 0.7001; Complete [1, 9]: 1.43; Difference [1, 10]: 0.73
Cc1[nH]c(=O)c(C#N)cc1-c1ccncc1 [Milrinone] | −0.04 |  |  | 1.16 | 1.825 |  |  |  | Cholesterol-free [1, 8]: 0.9793; Complete [1, 9]: 0.9407; Difference [2, 13]: 0.66
COc1c(C)c2c(c(O)c1C/C=C(\C)CCC(=O)OCCN1CCOCC1)C(=O)OC2 [Mycophenolate Mofetil] | −0.01 |  |  | 0.7059 | 0.6206 | −0.09 |  |  | Cholesterol-free [1, 8]: 0.3372; Complete [1, 9]: 0.3232
CO[C@@]1(NC(=O)Cc2cccs2)C(=O)N2C(C(=O)O)=C(COC(N)=O)CS[C@@H]21 [Cefoxitin] |  |  |  |  |  | −0.34 | 1.841 | 1.5 | Difference [1, 14]: −0.13; Cholesterol-free [1, 15]: 0.8861; Complete [1, 6]: 0.755
C[C@@H]1O[C@@H]1P(=O)(O)O [Fosfomycin (calcium)] | −0.27 | 1.27 | 1.001 |  |  | −0.21 |  |  | Cholesterol-free media + simvastatin (0.04 μM) ([2]; NCI-H292 cells, drug in cholesterol-free media with simvastatin 0.04 μM): 1.093; Complete Media ([2]; NCI-H292 cells, drug in complete media): 0.8864
CCCCCCCCCCCCCCCC(=O)OC1CCCn2c1nc(C)c(CCN1CCC(c3noc4cc(F)ccc34)CC1)c2=O (stereo not shown) [Paliperidone palmitate] |  |  |  |  |  | −0.37 | 1.193 | 0.8268 | Difference [1, 14]: −0.16; Cholesterol-free [1, 15]: 1.234; Complete [1, 6]: 1.075
O=C(O)/C=C/C(=O)O [Fumaric acid] |  | 1.029 | 0.6691 |  |  | −0.28 | 1.117 | 0.8401 | Difference [1, 18]: −0.36
CN1CCN2c3ncccc3Cc3ccccc3C2C1 (stereo not shown) [Mirtazapine] |  |  |  |  |  |  |  |  | Difference [1, 14]: −0.17; Cholesterol-free [1, 15]: 1.176; Complete [1, 6]: 1.005; Cholesterol-free media + simvastatin (0.04 μM) [2, 19]: 0.9802; Complete Media [2, 20]: 0.914; Difference [2, 21]: −0.07
NC(=O)CN1CCCC1=O [Piracetam] |  |  |  | 1.178 | 1.066 | −0.11 |  |  | Difference [1, 22]: −0.50; Cholesterol-free [1, 23]: 1.403; Complete [1, 24]: 0.9062
NC(N)=O [Urea] | −0.20 | 1.334 | 1.138 |  |  | −0.29 | 1.928 | 1.641 | 
CC(C)[N+]1(C)[C@@H]2CC[C@H]1CC(OC(=O)C(CO)c1ccccc1)C2.[Br-] (stereo partly shown) [Ipratropium (bromide)] |  | 1.233 | 0.8969 |  |  |  | 1.536 |  | Difference ([1]; complete vs cholesterol-free media, […]): −0.34; Difference ([2]; complete media vs cholesterol-free media + simvastatin (0.04 μM), […]): −0.39
COc1cc(NS(=O)(=O)c2ccc(N)cc2)ncn1 [Sulfamonomethoxine] |  |  |  |  |  | −0.27 | 1.013 | 0.7465 | Difference [1, 22]: −0.48; Cholesterol-free [1, 23]: 1.378; Complete [1, 24]: 0.8971
CC[N+](CC)(CC)CCOc1cccc(OCC[N+](CC)(CC)CC)c1OCC[N+](CC)(CC)CC [Gallamine Triethiodide] | −0.28 | 1.311 | 1.029 |  |  | −0.35 | 1.372 | 1.027 | 
CN[C@@H]1[C@H](O)[C@H](NC)[C@H]2O[C@@]3(O)C(=O)C[C@@H](C)O[C@H]3O[C@@H]2[C@H]1O [Spectinomycin (dihydrochloride)] |  |  |  |  |  |  |  |  | Cholesterol-free [1, 8]: 0.9841; Complete [1, 9]: 1.077; Difference [1, 10]: 0.09; Cholesterol-free media + simvastatin (0.04 μM) [2, 19]: 1.126; Complete Media [2, 20]: 1.142; Difference [2, 21]: 0.02
O=C[C@H](O)[C@@H](O)[C@H](O)CO (racemic) [DL-Xylose] |  |  |  | 0.8322 | 1.203 |  |  |  | Difference [1, 22]: −0.70; Cholesterol-free [1, 23]: 1.5; Complete [1, 24]: 0.7993; Difference [2, 13]: 0.37
CN1[C@@H](CC(=O)c2ccccc2)CCC[C@H]1C[C@H](O)c1ccccc1 [Lobeline (hydrochloride)] |  |  |  |  |  | −0.29 | 1.408 | 1.116 | Cholesterol-free [1, 8]: 0.6538; Complete [1, 9]: 1.202; Difference [1, 10]: 0.55
COCCCN1CCC(NC(=O)c2cc(Cl)c(N)c3c2OCC3)CC1 [Prucalopride] |  |  |  |  |  |  |  |  | Difference [1, 22]: −0.49; Cholesterol-free [1, 23]: 1.522; Complete [1, 24]: 1.033; Cholesterol-free media + simvastatin (0.04 μM) [2, 11]: 0.8751; Complete Media [2, 12]: 0.9854; Difference [2, 13]: 0.11
